Reference: US20240067651A1 (Biohaven Therapeutics Ltd., priority 2019, published 2024)
One block for each compound: values may come before it.

Experiments:
[1] = Plasma Stability; format: in vitro ADME, human
Outline: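 Compounds incubated at 1 μM in fresh human plasma for 1 hour at 37° C, then protein-precipitated with acetonitrile/formic acid containing internal standard. Remaining parent measured by LC-MS/MS in triplicate, expressed as percent of control remaining.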

[2] = Stability in Simulated Gastric Fluid (SGF); format: in vitro ADME; set-up: key: % parent compound remaining relative to 0-minute sample
Outline: (§1)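 Compound at 2 μg/mL final was incubated at 37 °C with shaking in SGF with pepsin (pH 1.2) or SIF with pancreatin (pH 6.8), sampled from 0 to 60 min. After acetonitrile precipitation, LC-MS/MS gave % parent remaining vs 0 min; half-life came from ln(% remaining) vs time.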

[3] = Stability in Simulated Intestinal Fluid (SIF); format: in vitro ADME; set-up: key: % parent compound remaining relative to 0-minute sample
Outline: as §1

[4] = Caco-2 Permeability Assay; format: in vitro ADME, human; settings: human
Outline: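 Caco-2 monolayers cultured 21 days (TEER >600 […]); test article at 10 μM in HBSS/HEPES pH 7.4 transport medium, dosed apical or basolateral, ±Pgp inhibitor. Incubated 90 min at 37 °C; both compartments quantified by LC-MS/MS. Papp (A→B, B→A), efflux ratio and % recovery calculated.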

[5] = % remaining at 1 h in human plasma
[6] = % remaining at 1 h in simulated gastric fluid
[7] = % remaining at 1 h in simulated intestinal fluid
[8] = Caco-2, pH 7.4, Caco-2 monolayer
[9] = % remaining at 1 h in human plasma, the 17th table
[10] = % remaining at 1 h in simulated gastric fluid, the 17th table
[11] = % remaining at 1 h in simulated intestinal fluid, the 17th table
[12] = Caco-2, pH 7.4, Caco-2 monolayer, the 17th table
[13] = % remaining at 1 h, human plasma, 1 μM, 37° C.
[14] = % remaining at 1 h, SGF with pepsin pH 1.2, 2 μg/mL, 37° C.
[15] = % remaining at 1 h, SIF with pancreatin pH 6.8, 2 μg/mL, 37° C.
[16] = Caco-2, pH 7.4, donor 10 μM, 90 minutes, 37° C., direction not given
[17] = % remaining at 1 h in human plasma, the 15th table
[18] = % remaining at 1 h in simulated gastric fluid, the 15th table
[19] = % remaining at 1 h in simulated intestinal fluid, the 15th table
[20] = Caco-2, pH 7.4, Caco-2 monolayer, the 15th table
[21] = % @ 1 h (remaining) in human plasma
[22] = % @ 1 h (remaining) in simulated gastric fluid
[23] = % @ 1 h (remaining) in simulated intestinal fluid

Compound: CC(C)OCCn1c(=S)[nH]c(=O)c2c1ccn2COC(=O)CCNC(=O)[C@H](CCc1ccccc1)NC(=O)OC(C)(C)C.O=C(O)C(F)(F)F [Example 19]
human Plasma stability [1, 5]: 42% remaining | SGF [2, 6]: 82% remaining | SIF [3, 7]: 57% remaining | Papp at 90 min, 10 µM [4, 8]: 11.7 ×10⁻⁶ cm/s

Compound: CC(C)OCCn1c(=S)[nH]c(=O)c2c1ccn2COC(=O)CCNC(=O)[C@@H](N)CCc1ccccc1.O=C(O)C(F)(F)F [Example 25]
human Plasma stability [1, 5]: 96% remaining | SGF [2, 6]: 99% remaining | SIF [3, 7]: 43% remaining | Papp at 90 min, 10 µM [4, 8]: 0.287 ×10⁻⁶ cm/s

Compound: CC(C)OCCn1c(=S)[nH]c(=O)c2c1ccn2COC(=O)CCCCNC(=O)[C@@H](NC(=O)OC(C)(C)C)C(C)C [Example 10, {4-oxo-1-[2-(propan-2-yloxy)-ethyl]-2-sulfanylidene-1H,2H,3H,4H,5H-pyrrolo[3,2-d]pyrimidin-5-yl}methyl5-[(2S)-2-{[(tert-butoxy)carbonyl]amino}-3-methylbutanamido]pentanoate]
human Plasma stability [1, 13]: 72% | SGF [2, 14]: 81% | SIF [3, 15]: 76% | Papp at 90 min, 10 µM [4, 16]: 4.87 ×10⁻⁶ cm/s

Compound: CC(C)OCCn1c(SCOCC[Si](C)(C)C)nc(=O)c2c1ccn2COCC[Si](C)(C)C [Example 73, 1-[2-(propan-2-yloxy)ethyl]-5-{[2-(trimethylsilyl)ethoxy]-methyl}-2-({[2-(trimethylsilyl)ethoxy]methyl}sulfanyl)-1H,4H,5H-pyrrolo[3,2-d]pyrimidin-4-one]
human Plasma stability [1, 13]: 99% | SGF [2, 14]: 35% | SIF [3, 15]: 55% | Papp at 90 min, 10 µM [4, 16]: < 0.717 ×10⁻⁶ cm/s

Compound: CC(C)OCCn1c(=S)[nH]c(=O)c2c1ccn2COC(=O)[C@H](Cc1ccccc1)NC(=O)OC(C)(C)C [Example 302, {4-oxo-1-[2-(propan-2-yloxy)ethyl]-2-sulfanylidene-1H,2H,3H,4H,5H-pyrrolo[3,2-d]pyrimidin-5-yl}methyl (2S)-2-{[(tert-butoxy)carbonyl]amino}-3-phenylpropanoate]
human Plasma stability ([1]; % remaining @ 1 h): 67% @ 1 h | SGF ([2]; % remaining @ 1 h): 97% @ 1 h | SIF ([3]; % remaining @ 1 h): 5% @ 1 h | Papp at 90 min, 10 µM ([4]; Caco-2, pH 7.4): 4.48 ×10⁻⁶ cm/s

Compound: CC(C)OCCn1c(=S)[nH]c(=O)c2c1ccn2COC(=O)CCCCNC(=O)[C@@H](N)Cc1c[nH]c2ccccc12.O=C(O)C(F)(F)F [Example 51]
human Plasma stability [1, 5]: 2% remaining | SGF [2, 6]: 94% remaining | SIF [3, 7]: 83% remaining | Papp at 90 min, 10 µM [4, 8]: 0.519 ×10⁻⁶ cm/s

Compound: COC(=O)[C@H](CCCCNC(=O)OC(C)(C)C)NC(=O)OCn1ccc2c1c(=O)[nH]c(=S)n2CCOC(C)C [Example 102, Methyl (2S)-6-{[(tert-butoxy)carbonyl]amino}-2-{[({4-oxo-1-[2-(propan-2-yloxy)ethyl]-2-sulfanylidene-1H,2H,3H,4H,5H-pyrrolo[3,2-d]pyrimidin-5-yl}methoxy)carbonyl]amino}hexanoate]
human Plasma stability ([1]; % remaining at 1 h, human plasma, 1 μM, 37° C., listed as EXAMPLE 102): 97% | SGF ([2]; % remaining at 1 h, SGF with pepsin pH 1.2, 2 μg/mL, 37° C., listed as EXAMPLE 102): 75% | SIF ([3]; % remaining at 1 h, SIF with pancreatin pH 6.8, 2 μg/mL, 37° C., listed as EXAMPLE 102): 96% | Papp at 90 min, 10 µM [4, 16]: 1.46 ×10⁻⁶ cm/s

Compound: CC(C)OCCn1c(=S)n(COC(=O)[C@@H](Cc2ccccc2)NC(=O)OC(C)(C)C)c(=O)c2c1ccn2COC(=O)[C@@H](Cc1ccccc1)NC(=O)OC(C)(C)C [Example 307, [3-({[(2R)-2-{[(tert-butoxy)carbonyl]amino}-3-phenylpropanoyl]oxy}methyl)-4-oxo-1-[2-(propan-2-yloxy)ethyl]-2-sulfanylidene-1H,2H,3H,4H,5H-pyrrolo[3,2-d]pyrimidin-5-yl]methyl (2R)-2-{[(tert-butoxy)carbonyl]amino}-3-phenylpropanoate]
human Plasma stability ([1]; % remaining @ 1 h): 99% @ 1 h | SGF ([2]; % remaining @ 1 h): 26% @ 1 h | SIF ([3]; % remaining @ 1 h): 43% @ 1 h | Papp at 90 min, 10 µM ([4]; Caco-2, pH 7.4): 0.334 ×10⁻⁶ cm/s

Compound: CC(C)OCCn1c(=S)[nH]c(=O)c2c1ccn2COC(=O)CCNC(=O)[C@@H](N)Cc1ccc(O)cc1.O=C(O)C(F)(F)F [Example 50]
human Plasma stability [1, 5]: 25% remaining | SGF [2, 6]: 99% remaining | SIF [3, 7]: 75% remaining | Papp at 90 min, 10 µM [4, 8]: 0.215 ×10⁻⁶ cm/s

Compound: CC(C)OCCn1c(SCOC(=O)N(C)C(C)C)nc(=O)c2c1ccn2COC(=O)N(C)C(C)C.O=C(O)C(F)(F)F [Example 171]
human Plasma stability [1, 21]: 97% @ 1 h | SGF [2, 22]: 100% @ 1 h | SIF [3, 23]: 89% @ 1 h | Papp at 90 min, 10 µM [4, 8]: 21.7 ×10⁻⁶ cm/s

Compound: CC(C)OCCn1c(SCOC(=O)OCCOCCNC(=O)OC(C)(C)C)nc(=O)c2c1ccn2COC(=O)OCCOCCNC(=O)OC(C)(C)C [Example 121]
human Plasma stability [1, 5]: 34% remaining | SGF [2, 6]: 69% remaining | SIF [3, 7]: 56% remaining | Papp at 90 min, 10 µM [4, 8]: 1.19 ×10⁻⁶ cm/s

Continued, values first:

human Plasma stability [1, 9]: 88% remaining | SGF [2, 10]: 94% remaining | SIF [3, 11]: 1% remaining | Papp at 90 min, 10 µM [4, 12]: 0.214 ×10⁻⁶ cm/s
Compound: CCCCCCOC(=O)OCn1c(=O)c2c(ccn2COC(=O)OCCCCCC)n(CCOC(C)C)c1=S [Example 215]

human Plasma stability ([1]; human plasma, at 1 h): 2% remaining | SGF ([2]; simulated gastric fluid, at 1 h): 60% remaining | SIF ([3]; simulated intestinal fluid, at 1 h): 1% remaining at | Papp at 90 min, 10 µM [4, 8]: < 0.369 ×10⁻⁶ cm/s
Compound: CC(C)OCCn1c(=S)[nH]c(=O)c2c1ccn2COC(=O)Oc1ccc(F)cc1 [Example 235]

human Plasma stability [1, 17]: 97% remaining | SGF [2, 18]: 100% remaining | SIF [3, 19]: 99% remaining | Papp at 90 min, 10 µM [4, 20]: 30 ×10⁻⁶ cm/s
Compound: CC(C)NC(=O)OCSc1nc(=O)c2c(ccn2C(=O)NC(C)C)n1CCOC(C)C [Example 195]

human Plasma stability [1, 17]: 0% remaining | SGF [2, 18]: 79% remaining | SIF [3, 19]: 74% remaining | Papp at 90 min, 10 µM [4, 20]: 11.4 ×10⁻⁶ cm/s
Compound: COC(=O)OCSc1nc(=O)c2c(ccn2COC(=O)OC)n1CCOC(C)C [Example 198]

human Plasma stability [1, 9]: 94% remaining | SGF [2, 10]: 67% remaining | SIF [3, 11]: 68% remaining | Papp at 90 min, 10 µM [4, 12]: 2.54 ×10⁻⁶ cm/s
Compound: CC(=O)OCc1ccccc1N(C)C(=O)OC(C)n1ccc2c1c(=O)nc(S)n2CCOC(C)C (centres unmarked) [Example 221]

human Plasma stability [1, 21]: 97% @ 1 h | SGF [2, 22]: 84% @ 1 h | SIF [3, 23]: 99% @ 1 h | Papp at 90 min, 10 µM [4, 8]: 2.56 ×10⁻⁶ cm/s
Compound: CC(C)OCCn1c(SCOC(=O)N(C)C)nc(=O)c2c1ccn2COC(=O)N(C)C [Example 165, trifluoroacetic acid [2-({[(dimethylcarbamoyl)oxy]methyl}sulfanyl)-4-oxo-1-[2-(propan-2-yloxy)ethyl]-1H,4H,5H-pyrrolo[3,2-d]pyrimidin-5-yl]methyl N,N-dimethylcarbamate]

human Plasma stability [1, 9]: 44% remaining | SGF [2, 10]: 76% remaining | SIF [3, 11]: 1% remaining | Papp at 90 min, 10 µM [4, 12]: 3.03 ×10⁻⁶ cm/s
Compound: CCCCCCOC(=O)OCn1ccc2c1c(=O)nc(S)n2CCOC(C)C [Example 213]

human Plasma stability [1, 13]: 95% @ | SGF [2, 14]: 91% | SIF [3, 15]: 100% | Papp at 90 min, 10 µM [4, 16]: < 1.07 ×10⁻⁶ cm/s
Compound: CC(C)OCCn1c(=S)[nH]c(=O)c2c1ccn2COP(=O)(O)O [Example 83, ({4-oxo-1-[2-(propan-2-yloxy)ethyl]-2-sulfanylidene-1H,2H,3H,4H,5H-pyrrolo[3,2-d]pyrimidin-5-yl}methoxy)phosphonic acid]

human Plasma stability [1, 13]: 97% remaining | SGF [2, 14]: 100% remaining | SIF [3, 15]: 97% remaining | Papp at 90 min, 10 µM [4, 16]: < 0.19 ×10⁻⁶ cm/s
Compound: CC(C)OCCn1c(=S)[nH]c(=O)c2c1ccn2COC(=O)C[C@H](NC(=O)CCCCCCCCCCC(=O)O)C(=O)O [Example 142, 11-{[(1S)-1-carboxy-3-oxo-3-({4-oxo-1-[2-(propan-2-yloxy)ethyl]-2-sulfanylidene-1H,2H,3H,4H,5H-pyrrolo[3,2-d]pyrimidin-5-yl}methoxy)propyl]carbamoyl}undecanoic acid]
